According to publication PMC9023740, “Mucin-Type O-Glycosylation Proximal to β-Secretase Cleavage Site Affects APP Processing and Aggregation Fate” (Frontiers in Chemistry, 2022):

Assays:
[1] = target: T1, Recombinant human BACE-1 (rhBACE-1) (Homo sapiens, UniProt P56817); experiment: Proteolytic cleavage of APP (glyco)peptides by BACE-1, RP-HPLC peak integration; assay type: biochemical; settings: 100 μM substrate, 50 nM rhBACE-1, 0.1 M sodium acetate pH 4.0, 24 h, 37°C, dark; RP-HPLC peak integration at 214 nm, averaged from two injections, SD <5%
T1 construct: purchased R&D Systems #ES004 and #931-AS, respectively (so in the source)
Procedure: All APP-based substrates were prepared as 10 mM stocks in DMSO. Before proteolysis, the activity of BACE-1 was verified by the reaction with the fluorogenic BACE-1substrate Mca-[…](Dnp)RR-NH2 ([Koike et al., 1999]) as per the manufacturer’s instructions. For the proteolysis assay, APP-based substrates were diluted in BACE-1 activity buffer (0.1 M sodium acetate, pH 4.0) to the final assay concentration of 100 μM. BACE-1 was diluted to 50 nM final concentration. Reactions were incubated for 24 h at 37°C in the dark. After the incubation period, the enzyme cleavage solutions containing APP-based substrates and BACE-1 were analyzed using the analytical RP-HPLC method on the Aeris C18 column with 0.1% TFA in water (A) and 0.1% TFA in acetonitrile (B) as eluents and 0–60% B as the elution gradient over 30 min with a flow rate of 0.8 ml/min, and detection at 214 nm or the Vydac Denali C18 column with 0.1% TFA in water (A) and 0.1% TFA in acetonitrile (B) as eluents and 0–60% B as the elution gradient over 30 min with a flow rate of 1 ml/min, and detection at 214 nm. The identity of intact and cleaved (N- and C-terminal) fragments of (glyco)peptides in the absence and presence of BACE-1 (β-secretase) was confirmed by MALDI-TOF and their percentages were evaluated by the integration of the RP-HPLC peaks (averaged from two injections).
Glycosylation can alter substrate recognition and impact enzyme activity in either a positive (enhancing) or negative (inhibiting) manner ([Goettig, 2016]; [Goth et al., 2018]). The mucin-type O-linked glycosylation of a protein may not only affect its conformation but also affect its transport and localization in the cell ([Matsuura et al., 1989]; [Chen et al., 2002]). Proteases are highly regulated by post-translational modifications and drive fate, localization, and activity of many proteins ([Bond, 2019]). Certain mutations can also affect the subcellular localization of the cleavage event by crucial proteases and mediate a different cellular mechanism for the protein ([Haass et al., 1995]). […] Therefore, similar enzyme cleavage assays with BACE-1 were set up to explore the effect of the Swedish mutation, length of the amino acid sequence, glycan position and valency on the proteolytic susceptibility of 3–12. BACE1 produced two fragments upon cleavage of (glyco)peptides, for which yields were determined after 24 h treatment. The yields of intact peptide and fragments were evaluated by the RP-HPLC peaks integration (Table 3, and the Supplementary Material S20–S32).
3. Enzyme cleavage assays with APP (glyco)peptides 3-12 by RP-HPLC and MALDI-TOF MS
For the BACE1 enzyme cleavage assay, APP-based (glyco)peptide substrates were diluted in BACE1 activity buffer and incubated with BACE1 for 24 h at 37 °C in the dark. After the incubation period, the enzyme cleavage solutions containing APP-based (glyco)peptide substrates and BACE1 were analyzed using analytical RP-HPLC.
RP-HPLC gradient on Phenomenex Aeris Peptide C18 column (150 x 4.6 mm, 3.6 µm, 100Å):
Eluents were 0.1% TFA in water (A) and 0.1% TFA in acetonitrile (B). The elution gradient was 0-60%B in 30 minutes with a flow rate of 0.8 mL/min. Detection was at λ = 214 nm.
S*/T*= Ser(-α-GalNAc) 1/Thr(-α-GalNAc) 2
(a) APP665-680, 3 in activity buffer
(b) APP665-680 (3) + BACE1 in activity buffer […]

[2] = CD spectroscopy, secondary structure content by BeStSel; assay type: physicochemical; settings: for RC (%) random coil / α-H (%) α-helix / β-AP (%) anti-parallel β-sheet / β-P (%) parallel β-sheet / β-T (%) β-turn: CD, BeStSel, 0.065 mg/ml, 25°C
Procedure: All (glyco)peptides were analyzed for their secondary structure using circular dichroism (CD) spectroscopy on a Jasco-810 spectropolarimeter (Jasco, Easton, MD) in three solvent systems: water, 10 mM sodium phosphate buffer (pH 7.4), and 50% trifluoroethanol (TFE) in water (v/v) mixture. The CD spectra were recorded using a quartz cell of 1 mm optical path length over a wavelength range of […] with a scanning speed of 100 nm/min and a response time of 4 s at 25°C. A concentration of 0.065 mg/ml, determined using the analytical RP-HPLC method, gave the […] signal-to-noise ratio for all (glyco)peptides. All spectra were baseline-corrected to account for the signal contribution from solvent and then converted into molar ellipticity (deg cm^2 dmol^−1) ([Sreerama and Woody, 2000]). Lastly, the percentages of all secondary structures were determined using the BeStSel method ([Micsonai et al., 2018]; [Singh et al., 2021]).
To study the role of O-glycosylation on the conformation of APP glycopeptides, circular dichroism (CD) spectroscopy was used to probe the secondary structure in three different solvents, water, sodium phosphate buffer (10 mM, pH 7.4), and 50% trifluoroethanol (TFE) in water (v/v) (Figure 1). The spectra were further analysed for secondary structure estimations by Beta Structure Selection (BeStSel) method, specifically designed for the analysis of beta sheet-rich proteins (Table 2) ([Micsonai et al., 2015], [2018]).

[3] = (B) 10 mM sodium phosphate buffer, pH 7.4

T1 sequence (P56817 46-457 limits assumed): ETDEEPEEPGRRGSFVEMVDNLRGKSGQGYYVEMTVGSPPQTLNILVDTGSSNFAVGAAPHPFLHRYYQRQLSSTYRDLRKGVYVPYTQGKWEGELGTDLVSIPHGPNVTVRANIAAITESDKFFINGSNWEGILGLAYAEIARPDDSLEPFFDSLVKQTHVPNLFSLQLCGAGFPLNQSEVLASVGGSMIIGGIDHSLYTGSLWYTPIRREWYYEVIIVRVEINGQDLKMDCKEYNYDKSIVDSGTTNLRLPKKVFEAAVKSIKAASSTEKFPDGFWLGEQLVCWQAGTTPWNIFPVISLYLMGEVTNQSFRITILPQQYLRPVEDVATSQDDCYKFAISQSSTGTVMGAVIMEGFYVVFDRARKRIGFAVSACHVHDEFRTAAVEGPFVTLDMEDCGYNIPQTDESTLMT

Compound	BACE-1 activity, Cleaved (%) [1] [%]	BACE-1 activity, Recovered (%) [1] [%]	further results
CC[C@H](C)[C@H](N)C(=O)N[C@@H](CCCCN)C(=O)N[C@H](C(=O)N[C@@H](CCC(=O)O)C(=O)N[C@@H](CCC(=O)O)C(=O)N[C@H](C(=O)N[C@@H](CO[C@H]1O[C@H](CO)[C@H](O)[C@H](O)[C@H]1NC(C)=O)C(=O)N[C@@H](CCC(=O)O)C(=O)N[C@H](C(=O)N[C@@H](CC(N)=O)C(=O)N[C@@H](CC(C)C)C(=O)N[C@@H](CC(=O)O)C(=O)N[C@@H](C)C(=O)N[C@@H](CCC(=O)O)C(=O)N[C@@H](Cc1ccccc1)C(=O)N[C@@H](CCCNC(=N)N)C(=O)N[C@@H](Cc1c[nH]cn1)C(=O)N[C@@H](CC(=O)O)C(=O)N[C@@H](CO)C(=O)NCC(N)=O)C(C)C)[C@@H](C)CC)[C@@H](C)O[C@H]1O[C@H](CO)[C@H](O)[C@H](O)[C@H]1NC(C)=O [compound 12]	96.1	3.90	
IKT*EEIS*EVKM∼DAEFRHDSG [compound 9, native APP 661-680 glycopeptide with O-GalNAc on Thr^663 and Ser^667]	4.12	95.9	RC (%) random coil ([2]; (A) water): 22.4%; α-H (%) α-helix ([2]; (A) water): 12.8%; β-AP (%) anti-parallel β-sheet ([2]; (A) water): 48.2%; β-P (%) parallel β-sheet ([2]; (A) water): 0.0%; β-T (%) β-turn ([2]; (A) water): 16.6%; RC (%) random coil [2, 3]: 48.7%; α-H (%) α-helix [2, 3]: 9.5%; β-AP (%) anti-parallel β-sheet [2, 3]: 24.6%; β-P (%) parallel β-sheet [2, 3]: 0.0%; β-T (%) β-turn [2, 3]: 17.1%; RC (%) random coil ([2]; (C) TFE/water = 1:1 (v/v)): 0.0%; α-H (%) α-helix ([2]; (C) TFE/water = 1:1 (v/v)): 94.4%; β-AP (%) anti-parallel β-sheet ([2]; (C) TFE/water = 1:1 (v/v)): 0.0%; β-P (%) parallel β-sheet ([2]; (C) TFE/water = 1:1 (v/v)): 0.0%; β-T (%) β-turn ([2]; (C) TFE/water = 1:1 (v/v)): 5.6%; β-structure (anti-parallel β-sheet, parallel β-sheet, and β-turn) ([2]; water, sum of BeStSel contents): 64.8%
CC[C@H](C)[C@H](NC(=O)[C@@H](N)CCC(=O)O)C(=O)N[C@@H](CO)C(=O)N[C@@H](CCC(=O)O)C(=O)N[C@H](C(=O)N[C@@H](CC(N)=O)C(=O)N[C@@H](CC(C)C)C(=O)N[C@@H](CC(=O)O)C(=O)N[C@@H](C)C(=O)N[C@@H](CCC(=O)O)C(=O)N[C@@H](Cc1ccccc1)C(=O)N[C@@H](CCCNC(=N)N)C(=O)N[C@@H](Cc1c[nH]cn1)C(=O)N[C@@H](CC(=O)O)C(=O)N[C@@H](CO)C(=O)NCC(N)=O)C(C)C [compound 5]	96.2	3.82	
CC[C@H](C)[C@H](N)C(=O)N[C@@H](CCCCN)C(=O)N[C@H](C(=O)N[C@@H](CCC(=O)O)C(=O)N[C@@H](CCC(=O)O)C(=O)N[C@H](C(=O)N[C@@H](CO)C(=O)N[C@@H](CCC(=O)O)C(=O)N[C@H](C(=O)N[C@@H](CC(N)=O)C(=O)N[C@@H](CC(C)C)C(=O)N[C@@H](CC(=O)O)C(=O)N[C@@H](C)C(=O)N[C@@H](CCC(=O)O)C(=O)N[C@@H](Cc1ccccc1)C(=O)N[C@@H](CCCNC(=N)N)C(=O)N[C@@H](Cc1c[nH]cn1)C(=O)N[C@@H](CC(=O)O)C(=O)N[C@@H](CO)C(=O)NCC(N)=O)C(C)C)[C@@H](C)CC)[C@@H](C)O[C@H]1O[C@H](CO)[C@H](O)[C@H](O)[C@H]1NC(C)=O [compound 11]	98.1	1.90	
CC[C@H](C)[C@H](N)C(=O)N[C@@H](CCCCN)C(=O)N[C@H](C(=O)N[C@@H](CCC(=O)O)C(=O)N[C@@H](CCC(=O)O)C(=O)N[C@H](C(=O)N[C@@H](CO)C(=O)N[C@@H](CCC(=O)O)C(=O)N[C@H](C(=O)N[C@@H](CC(N)=O)C(=O)N[C@@H](CC(C)C)C(=O)N[C@@H](CC(=O)O)C(=O)N[C@@H](C)C(=O)N[C@@H](CCC(=O)O)C(=O)N[C@@H](Cc1ccccc1)C(=O)N[C@@H](CCCNC(=N)N)C(=O)N[C@@H](Cc1c[nH]cn1)C(=O)N[C@@H](CC(=O)O)C(=O)N[C@@H](CO)C(=O)NCC(N)=O)C(C)C)[C@@H](C)CC)[C@@H](C)O [compound 10]	79.7	20.3	
CC[C@H](C)[C@H](NC(=O)[C@@H](N)CCC(=O)O)C(=O)N[C@@H](CO[C@H]1O[C@H](CO)[C@H](O)[C@H](O)[C@H]1NC(C)=O)C(=O)N[C@@H](CCC(=O)O)C(=O)N[C@H](C(=O)N[C@@H](CCCCN)C(=O)N[C@@H](CCSC)C(=O)N[C@@H](CC(=O)O)C(=O)N[C@@H](C)C(=O)N[C@@H](CCC(=O)O)C(=O)N[C@@H](Cc1ccccc1)C(=O)N[C@@H](CCCNC(=N)N)C(=O)N[C@@H](Cc1c[nH]cn1)C(=O)N[C@@H](CC(=O)O)C(=O)N[C@@H](CO)C(=O)NCC(N)=O)C(C)C [compound 4]	1.40	98.6	
CC[C@H](C)[C@H](NC(=O)[C@@H](N)CCC(=O)O)C(=O)N[C@@H](CO[C@H]1O[C@H](CO)[C@H](O)[C@H](O)[C@H]1NC(C)=O)C(=O)N[C@@H](CCC(=O)O)C(=O)N[C@H](C(=O)N[C@@H](CC(N)=O)C(=O)N[C@@H](CC(C)C)C(=O)N[C@@H](CC(=O)O)C(=O)N[C@@H](C)C(=O)N[C@@H](CCC(=O)O)C(=O)N[C@@H](Cc1ccccc1)C(=O)N[C@@H](CCCNC(=N)N)C(=O)N[C@@H](Cc1c[nH]cn1)C(=O)N[C@@H](CC(=O)O)C(=O)N[C@@H](CO)C(=O)NCC(N)=O)C(C)C [compound 6]	93.0	7.02	
CC[C@H](C)[C@H](NC(=O)[C@@H](N)CCC(=O)O)C(=O)N[C@@H](CO)C(=O)N[C@@H](CCC(=O)O)C(=O)N[C@H](C(=O)N[C@@H](CCCCN)C(=O)N[C@@H](CCSC)C(=O)N[C@@H](CC(=O)O)C(=O)N[C@@H](C)C(=O)N[C@@H](CCC(=O)O)C(=O)N[C@@H](Cc1ccccc1)C(=O)N[C@@H](CCCNC(=N)N)C(=O)N[C@@H](Cc1c[nH]cn1)C(=O)N[C@@H](CC(=O)O)C(=O)N[C@@H](CO)C(=O)NCC(N)=O)C(C)C [compound 3]	4.48	95.5	
CC[C@H](C)[C@H](N)C(=O)N[C@@H](CCCCN)C(=O)N[C@H](C(=O)N[C@@H](CCC(=O)O)C(=O)N[C@@H](CCC(=O)O)C(=O)N[C@H](C(=O)N[C@@H](CO)C(=O)N[C@@H](CCC(=O)O)C(=O)N[C@H](C(=O)N[C@@H](CCCCN)C(=O)N[C@@H](CCSC)C(=O)N[C@@H](CC(=O)O)C(=O)N[C@@H](C)C(=O)N[C@@H](CCC(=O)O)C(=O)N[C@@H](Cc1ccccc1)C(=O)N[C@@H](CCCNC(=N)N)C(=O)N[C@@H](Cc1c[nH]cn1)C(=O)N[C@@H](CC(=O)O)C(=O)N[C@@H](CO)C(=O)NCC(N)=O)C(C)C)[C@@H](C)CC)[C@@H](C)O [compound 7]	3.40	96.6	
